Test results taken from patent US20210087206A1, “MACROCYCLIC KINASE INHIBITORS AND THEIR USE” (TURNING POINT THERAPEUTICS, INC., priority 2017, published 2021).

Assays:
Assay in all cases: Cell proliferation assay (CellTiter-Glo)
Format in all cases: cell-based
BaF3 EML4-ALK = target: T1, BaF3 EML4-ALK (Homo sapiens, UniProt Q9UM73); conditions: anti-cell proliferation, 72 hours
T1 construct: The EML4-ALK gene (variant 1) was synthesized at GenScript and cloned into pCDH-CMV-MCS-EF1-Puro plasmid (System Biosciences, Inc); fused on or other part: EML4 N-terminal part (variant 1: exons 1-13, with the coiled-coil that oligomerises the fusion) fused to the intracellular part of ALK, which contains the kinase domain; Q9HC35 (Echinoderm microtubule-associated protein-like 4)
T1 sequence (Q9UM73 whole entry, stated change not applied, the tested form may be a part): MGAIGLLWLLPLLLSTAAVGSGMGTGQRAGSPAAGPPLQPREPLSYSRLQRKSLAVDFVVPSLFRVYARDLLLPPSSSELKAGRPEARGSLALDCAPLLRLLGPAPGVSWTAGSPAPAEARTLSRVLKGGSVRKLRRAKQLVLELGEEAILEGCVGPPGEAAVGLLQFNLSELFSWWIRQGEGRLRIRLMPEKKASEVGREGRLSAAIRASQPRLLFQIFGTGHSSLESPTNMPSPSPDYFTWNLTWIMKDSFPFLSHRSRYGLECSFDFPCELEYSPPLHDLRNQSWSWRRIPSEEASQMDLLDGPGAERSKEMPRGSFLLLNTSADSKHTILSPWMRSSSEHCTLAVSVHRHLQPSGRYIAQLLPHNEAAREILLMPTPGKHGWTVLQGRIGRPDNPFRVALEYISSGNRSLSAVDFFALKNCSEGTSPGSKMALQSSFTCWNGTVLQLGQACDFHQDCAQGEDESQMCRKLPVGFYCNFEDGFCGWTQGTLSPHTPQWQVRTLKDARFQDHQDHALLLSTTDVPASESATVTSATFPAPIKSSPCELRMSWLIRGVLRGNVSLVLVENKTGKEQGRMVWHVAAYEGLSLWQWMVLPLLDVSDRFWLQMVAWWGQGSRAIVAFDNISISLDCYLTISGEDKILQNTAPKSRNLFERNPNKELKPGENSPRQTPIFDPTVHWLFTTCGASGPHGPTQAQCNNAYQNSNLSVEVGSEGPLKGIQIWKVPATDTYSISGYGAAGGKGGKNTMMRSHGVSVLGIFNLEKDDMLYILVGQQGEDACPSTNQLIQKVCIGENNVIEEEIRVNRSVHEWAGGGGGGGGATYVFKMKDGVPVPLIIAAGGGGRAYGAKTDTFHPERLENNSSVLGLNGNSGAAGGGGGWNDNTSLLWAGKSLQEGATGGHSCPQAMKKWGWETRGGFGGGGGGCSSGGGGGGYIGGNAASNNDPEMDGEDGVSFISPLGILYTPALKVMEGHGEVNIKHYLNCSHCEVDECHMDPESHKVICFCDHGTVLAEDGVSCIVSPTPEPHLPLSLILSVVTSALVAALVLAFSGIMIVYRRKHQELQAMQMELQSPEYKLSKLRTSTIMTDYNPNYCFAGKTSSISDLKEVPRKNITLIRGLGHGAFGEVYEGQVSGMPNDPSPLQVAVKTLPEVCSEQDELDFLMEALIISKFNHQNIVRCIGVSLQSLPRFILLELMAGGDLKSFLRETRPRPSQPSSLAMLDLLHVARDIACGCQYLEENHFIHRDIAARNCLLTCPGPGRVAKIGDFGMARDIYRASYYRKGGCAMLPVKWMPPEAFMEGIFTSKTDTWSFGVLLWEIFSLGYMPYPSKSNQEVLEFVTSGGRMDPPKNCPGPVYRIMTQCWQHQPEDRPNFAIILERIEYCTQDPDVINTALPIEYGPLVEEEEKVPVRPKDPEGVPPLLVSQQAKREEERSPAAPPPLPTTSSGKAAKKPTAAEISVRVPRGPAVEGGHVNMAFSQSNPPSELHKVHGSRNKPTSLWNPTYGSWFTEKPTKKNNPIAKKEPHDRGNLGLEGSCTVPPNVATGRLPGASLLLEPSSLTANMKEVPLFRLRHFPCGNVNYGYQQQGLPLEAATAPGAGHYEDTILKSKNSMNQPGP
Summary of the method: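 Ba/F3 cells were lentivirally transduced with EML4-ALK variant 1 and selected for puromycin resistance and IL-3-independent growth. Proliferation was measured by CellTiter-Glo ATP luminescence to give IC50.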

KM12 (TPM3-TRKA) = conditions: Homo sapiens, anti-cell proliferation, 72 hours
Summary of the method: (§1)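 Cells seeded 24 h, then exposed to compounds for 72 h at 37° C., 5% CO2. Proliferation read by CellTiter-Glo luminescent ATP detection; IC50 from dose-response fits.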

KG-1 cell (OP2-FGFR1) = conditions: Homo sapiens, anti-cell proliferation, 72 hours
Summary of the method: as §1

Compound	IC50 (BaF3 EML4-ALK) [nM]	IC50 (KM12 (TPM3-TRKA)) [nM]	IC50 (KG-1 cell (OP2-FGFR1)) [nM]
C[C@@H]1COc2cn3ncc4c3nc2N1Cc1cc(F)cnc1O[C@H]1C[C@H](C1)NC4=O [Compound 95, (6S,8s,16R)-12-fluoro-16-methyl-5,6,7,8,16,17-hexahydro-4H,14H-6,8-methano-1,19-(metheno)[1,4]-oxazino[4,3-e]pyrazolo[3,4-h]-pyrido[2,3-b][1,5,7,11]oxatriaza-cyclotetradecin-4-one]	16.6	< 0.2	14.1
C[C@@H]1COc2cn3ncc4c3nc2N1Cc1cc(F)cnc1OC[C@H](C)NC4=O [Compound 51, (4R,13S)-8-fluoro-4,13-dimethyl-3,4,13,14-tetrahydro-6H-18,1-(metheno)[1,4]oxazino[3,4-i]-pyrazolo[4,3-f]pyrido[3,2-l] [1,4,8,10]oxatriazacyclotridecin-15(12H)-one]	233	< 0.2	101
C[C@H]1CNC(=O)c2cnn3cc4c(nc23)N(Cc2cc(F)ccc2O1)[C@H](CO)CO4 [Compound 12, (4R,12S)-8-fluoro-4-(hydroxymethyl)-12-methyl-3,4,13,14-tetrahydro-6H-18,1-(metheno)[1,4]oxazino[3,4-i]pyrazolo[4,3-f][1,4,8,10]benzoxatriazacyclotridecin-15(12H)-one]	1460	0.8	2000
CO[C@@H]1COc2cn3ncc4c3nc2N(Cc2cc(F)cnc2O[C@@H](C)CNC4=O)C1 [Compound 91, (4S,13S)-9-fluoro-4-methoxy-13-methyl-4,5,14,15-tetrahydro-3H,7H-19,1-(metheno)[1,4]oxazepino[3,4-i]pyrazolo[4,3-f]pyrido[3,2-1][1,4,8,10]oxatriazacyclotridecin-16(13H)-one]	234	64.2	990
C[C@@H]1COc2cn3ncc4c3nc2N(Cc2cc(F)cnc2OC[C@@H](C)CNC4=O)C1 [Compound 100, (7S,17S)-12-fluoro-7,17-dimethyl-5,6,7,8,17,18-hexahydro-4H,14H,16H-1,20-(metheno)[1,4]oxazepino-[4,3-e]pyrazolo[3,4-h]pyrido-[2,3-b][1,5,7,11]oxatriaza-cyclotetradecin-4-one]	2500	72.8	2800
CC[C@@H]1COc2cn3ncc4c3nc2N1Cc1cc(F)ccc1OC[C@@H](C)NC4=O [Compound 13, (4R,13R)-4-ethyl-8-fluoro-13-methyl-3,4,13,14-tetrahydro-6H-18,1-(metheno)[1,4]oxazino[3,4-i]pyrazolo[4,3-f][1,4,8,10]benzo-xatriazacyclotridecin-15(12H)-one]	28	0.2	145
C[C@@H]1COc2cn3ncc4c3nc2N1Cc1cc(F)cnc1O[C@H]1CCC[C@H]1NC4=O [Compound 49, (8R,15aS,18aR)-12-fluoro-8-methyl-7,8,15a,16,17,18,18a, 19-octahydro-10H,20H-3,5-(metheno)cyclopenta[b][1,4]-oxazino[3,4-i]pyrazolo[4,3-f]-pyrido[3,2-l][1,4,8,10]-oxatriazacyclotridecin-20-one]	55.1	< 0.2	9.5
C[C@H]1CNC(=O)c2cnn3cc4c(nc23)N(Cc2cc(F)cnc2O1)C1(CCC1)CO4 [Compound 56, (12′S)-8′-fluoro-12′-methyl-3′H,6′H,12′H,13′H,14′H,15′H-spiro[cyclobutane-1,4′-[2,11]-dioxa[5,10,14,17,18,19]-hexaaza[18,1](metheno)[1,4]-oxazino[3,4-i]pyrazolo[4,3-f]-pyrido[3,2-l][1,4,8,10]oxatriaza-cyclotridecin]-15′-one]	919	< 0.2	3000
C[C@H]1CNC(=O)c2cnn3cc4c(nc23)N(Cc2cc(F)cnc2O1)C1(CCCC1)CO4 [Compound 57, (12′S)-8′-fluoro-12′-methyl-3′H,6′H,12′H,13′H,14′H,15′H-spiro[cyclopentane-1,4′-[2,11]-dioxa[5,10,14,17,18,19]hexaaza-[18,1](metheno)[1,4]oxazino[3,4-i]pyrazolo[4,3-f]pyrido[3,2-l] [1,4,8,10]oxatriazacyclotridecin]-15′-one]	2210	< 0.2	4000
C[C@@H]1CCOc2cn3ncc4c3nc2N1Cc1cc(F)cnc1O[C@@H](C)CNC4=O [Compound 21, (5R,13S)-9-fluoro-5,13-dimethyl-4,5,14,15-tetrahydro-3H,7H-19,1-(metheno)[1,4]oxazepino[3,4-i]pyrazolo[4,3-f]pyrido[3,2-l][1,4,8,10]oxatriazacyclotridecin-16(13H)-one]	3000	0.6	1820
C[C@@H]1COc2ncc(F)cc2CN2c3nc4c(cnn4cc3OCC23CC(F)(F)C3)C(=O)N1 [Compound 63, (13′R)-3,3,8′-trifluoro-13′-methyl-3′H,6′H,12′H,13′H,14′H,15′H-spiro[cyclobutane-1,4′-[2,11]-dioxa[5,10,14,17,18,19]hexaaza-[18,1](metheno)[1,4]oxazino[3,4-i]pyrazolo[4,3-f]pyrido[3,2-l] [1,4,8,10]oxatriazacyclotridecin]-15′-one]	576	< 0.2	10000
C[C@@H]1COc2ncc(F)cc2CN2c3nc4c(cnn4cc3OC[C@H]2CN=[N+]=[N-])C(=O)N1 [Compound 43, (4R,13R)-4-(azidomethyl)-8-fluoro-13-methyl-3,4,13,14-tetrahydro-6H-18,1-(metheno)-[1,4]oxazino[3,4-i]pyrazolo[4,3-f]pyrido[3,2-l][1,4,8,10]oxatriaza-cyclotridecin-15(12H)-one]	85	0.2	30.6
C[C@@H]1COc2cn3ncc4c3nc2N1Cc1cc(F)cnc1OC[C@@H](O)CNC4=O [Compound 54, (7S,16R)-12-fluoro-7-hydroxy-16-methyl-5,6,7,8,16,17-hexa-hydro-4H,14H-1,19-(metheno)-[1,4]oxazino[4,3-e]pyrazolo-[3,4-h]pyrido[2,3-b][1,5,7,11]-oxatriazacyclotetradecin-4-one]	661	< 0.2	678
C[C@@H]1COc2cn3ncc4c3nc2N1Cc1cc(F)cnc1OC[C@H](F)CNC4=O [Compound 80, (7R,16R)-7,12-difluoro-16-methyl-5,6,7,8,16,17-hexahydro-4H,14H-1,19-(metheno)[1,4]-oxazino[4,3-e]pyrazolo[3,4-h]pyrido[2,3-b][1,5,7,11]oxa-triazacyclotetradecin-4-one]	134	< 0.2	44.4
C[C@@H]1COc2ncc(F)cc2CN2CC(F)(F)COc3cn4ncc(c4nc32)C(=O)N1 [Compound 74, (14R)-4,4,9-trifluoro-14-methyl-4,5,14,15-tetrahydro-3H,7H-19,1-(metheno)[1,4]oxazepino[3,4-i]-pyrazolo[4,3-f]pyrido[3,2-l] [1,4,8,10]oxatriazacyclotridecin-16(13H)-one]	> 10000	84	3000
C[C@@H]1COc2cn3ncc4c3nc2N1Cc1cc(F)cnc1OCC1(CC(F)(F)C1)NC4=O [Compound 50, (4′R)-3,3,8′-trifIuoro-4′-methyl-3′H,4′H,6′H,12′H,14′H,15′H-spiro[cyclobutane-1,13′-[2,11]-dioxa[5,10,14,17,18,19]hexaaza-[18,1](metheno)[1,4]oxazino[3,4-i][4,3-f]pyrido[3,2-l][1,4,8,10]-oxatriazacyclotridecin]-15′-one]	583	< 0.2	412
